Among the data in ChEMBL document CHEMBL1149613, “Characterized mechanism of alpha-mangostin-induced cell death: caspase-independent apoptosis with release of endonuclease-G from mitochondria and increased miR-143 expression in human colorectal cancer DLD-1 cells” (Bioorg Med Chem, 2007) are IC50 and Activity values, retold here.

Holding throughout (type): functional, cell-based
Assay [1] deals with DLD-1. As to the kind of experiment: Growth inhibition of human DLD1 cells.
Assay [2] concerns DLD-1. As to the kind of experiment: Induction of apoptosis in human DLD1 cells assessed as activation of caspase-3 at 20 uM by Western blot. In general terms: A western blot detects proteins with antibodies after separation by electrophoresis.
The subject of assay [3] is DLD-1. As to the kind of experiment: Cytotoxicity against human DLD1 cells assessed as decrease in cell number at 20 uM after 24 hrs by Trypan blue exclusion test.
For assay [4], the system named is DLD-1. As to the kind of experiment: Effect on ERK5 mRNA expression levels in human DLD1 cells by semi-qRT PCR.
Assay [5] relates to DLD-1. As to the kind of experiment: Induction of apoptosis in human DLD1 cells assessed as activation of pan-caspase at 20 uM by Western blot.
For assay [6], the system named is DLD-1. As to the kind of experiment: Increase in p-p38 levels in human DLD1 cells after 1 to 3 hrs by Western blot.
Assay [7] has as its system DLD-1. As to the kind of experiment: Reduction in cMyc level in human DLD1 cells by Western blot.
Assay [8] deals with DLD-1. As to the kind of experiment: Decrease in Erk5 expression levels in human DLD1 cells by Western blot.
Assay [9] deals with DLD-1. As to the kind of experiment: Cytotoxicity against human DLD1 cells at 2 uM after 24 hrs by Trypan blue exclusion test.
Assay [10] has as its system DLD-1. As to the kind of experiment: Cytotoxicity against human DLD1 cells after 24 hrs by Trypan blue exclusion test. The following applies: DLD-1, 24 h.
The test system of assay [11] is DLD-1. As to the kind of experiment: Apoptotic activity in human DLD1 cells at 15 uM after 24 hrs by Trypan blue exclusion test.
The subject of assay [12] is DLD-1. As to the kind of experiment: Induction of apoptosis in human DLD1 cells assessed as activation of bax protein at 20 uM by Western blot.
For assay [13], the system named is DLD-1. As to the kind of experiment: Induction of apoptosis in human DLD1 cells assessed as activation of bcl2 at 20 uM by Western blot.
Assay [14] concerns DLD-1. As to the kind of experiment: Induction of apoptosis in human DLD1 cells assessed as release of endonuclease-G at 20 uM after 6 to 24 hrs by Western blot.
Assay [15] has as its system DLD-1. As to the kind of experiment: Induction of apoptosis in human DLD1 cells assessed as release of endonuclease-G after 6 hrs by Western blot.
Assay [16] relates to DLD-1. As to the kind of experiment: Induction of apoptosis in human DLD1 cells assessed as release of apoptosis-inducing factor at 20 uM after 6 to 24 hrs by Western blot.

Calls of active or inactive are those of the source. The rule behind the calls is not given here.

On to `O=c1[nH]cc(F)c(=O)[nH]1` [FLUOROURACIL], for which inhibition in assay [1] was half-maximal at 4.5 µM (IC50).

Consider `COc1c(O)cc2oc3cc(O)c(CC=C(C)C)c(O)c3c(=O)c2c1CC=C(C)C` [MANGOSTIN], for which the result in assay [2], in assay [4], in assay [5], in assay [12], in assay [13] and in assay [16] was inactive. Moreover, the result in assay [3], in assay [6], in assay [7], in assay [8], in assay [9] and in [11] was Active. Further, the outcome in assay [14] was Active. Further, in assay [10], the half-maximal inhibitory concentration (IC50) (in general, the concentration that inhibits the measured activity by half) came to 7.5 µM. Besides, the Activity result in assay [15] is “Dose-dependent effect”.
